The values below come from US10633419B2, “Immunomodulators” (BRISTOL-MYERS SQUIBB COMPANY, priority 2014, dated 2020).

A word on the IC50: it is the concentration at which inhibition is half-maximal.

Structures are written as SMILES. Starred links: 1 amine or outer side, 2 acyl side, 3 side chain; linkers in the order of their positions; H or OH if unused. Positions of bridges follow the written chain, without caps; N, C: chain ends. Non-standard residues stand in square brackets, D forms with d. Residues, ends and D or L forms follow the SMILES beside them. Groups on a side chain read outwards from the residue. *: point of attachment. Trp(1-CH2COOH) = N[C@@H](Cc1cn(CC(=O)O)c2ccccc12)C(=O)O; C18 diacid = O=C(O)CCCCCCCCCCCCCCCCC(=O)*; Phe(4-F) = N[C@@H](Cc1ccc(F)cc1)C(=O)O; γGlu = O=C(O)[C@H](CCC(=O)[*:2])N[*:1]; Ethylenediamine = C(CN[*:2])N[*:1]; Hyp = O=C(O)[C@@H]1C[C@@H](O)CN1; NMeNle = CCCC[C@H](NC)C(=O)O; Pip = O=C(O)[C@@H]1CCCCN1; NMeA = CN[C@@H](C)C(=O)O; Pra = C#CC[C@H](N)C(=O)O; Dab = NCC[C@H](N)C(=O)O; Dap = NC[C@H](N)C(=O)O

For this experiment, the target named is T1, PD-L1 (Homo sapiens, UniProt Q9NZQ7).
T1 construct: hPDL1(19-239)-TVMV-His; made in house; host or cells: HEK293T
T1 sequence (Q9NZQ7 with tags, fused parts or gaps): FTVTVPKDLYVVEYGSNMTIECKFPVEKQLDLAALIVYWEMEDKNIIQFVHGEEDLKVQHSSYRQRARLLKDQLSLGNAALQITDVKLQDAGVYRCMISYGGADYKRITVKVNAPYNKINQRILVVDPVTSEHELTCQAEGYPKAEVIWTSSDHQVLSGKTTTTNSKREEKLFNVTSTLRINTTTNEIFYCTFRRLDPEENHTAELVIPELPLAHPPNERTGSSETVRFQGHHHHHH
Description: PD-1/PD-L1 Homogenous Time-Resolved Fluorescence (HTRF) binding assay (PD-1-Ig/PD-L1-His). The conditions noted are these: inhibition of PD-1-Ig binding to PD-L1-TVMV-His; value given as range class; read-out: HTRF IC50. Summed up: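 Inhibitors pre-incubated 15 min with PD-L1-His (10 nM final), then PD-1-Ig (20 nM final) added for 15 min in dPBS/0.1% BSA/0.05% Tween-20. Eu-cryptate anti-Ig (1 nM) and APC anti-His (20 nM) added, 30 min equilibration, 665/620 nm HTRF ratio read.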
(In TR-FRET formats the signal depends on donor and acceptor labels being close together.)
Turning to `CCCC[C@H]1C(=O)N(C)[C@@H](CCCC)C(=O)N[C@@H](CCC(=O)O)C(=O)N[C@H](C(=O)NCC(=O)N[C@@H](Cc2cn(CC[C@H](NC(=O)CCCCCCCCCCCCCCCCC(=O)O)C(=O)O)nn2)C(=O)O)CSCC(=O)N[C@@H](Cc2ccc(OC)cc2)C(=O)N2CCCC[C@H]2C(=O)N[C@@H](CC(=O)O)C(=O)N2CCC[C@H]2C(=O)N[C@@H](CN)C(=O)N[C@@H](CCC(N)=O)C(=O)N2C[C@H](O)C[C@H]2C(=O)N[C@@H](Cc2c[nH]c3ccccc23)C(=O)N[C@@H](CCN)C(=O)N[C@@H](Cc2cn(CC(=O)O)c3ccccc23)C(=O)N1C` [Example 14121], the 50% inhibitory concentration (IC50) is 10 to 99 nM.

On to `CCCC[C@H]1C(=O)N(C)[C@@H](CCCC)C(=O)N[C@@H](CC(C)C)C(=O)N[C@H](C(=O)NCC(=O)N[C@@H](Cc2cn(CC[C@H](NC(=O)CCCCCCCCCCCCCCCCC(=O)O)C(=O)O)nn2)C(=O)O)CSCC(=O)N[C@@H](Cc2ccc(F)cc2)C(=O)N2CCCC[C@H]2C(=O)N[C@@H](CC(=O)O)C(=O)N2CCC[C@H]2C(=O)N[C@@H](CN)C(=O)N[C@@H](CC(C)C)C(=O)N2C[C@H](O)C[C@H]2C(=O)N[C@@H](Cc2c[nH]c3ccccc23)C(=O)N[C@@H](CCN)C(=O)N[C@@H](Cc2cn(CC(=O)O)c3ccccc23)C(=O)N1C` [Example 14122], for which the IC50 is 10 to 99 nM.

For `CCCC[C@H]1C(=O)N(C)[C@@H](CCCC)C(=O)N[C@@H](CC(C)C)C(=O)N[C@H](C(=O)NCC(=O)N[C@@H](CCC(=O)NCCNC(=O)CC[C@H](NC(=O)CCCCCCCCCCCCCCCCC(=O)O)C(=O)O)C(=O)O)CSCC(=O)N[C@@H](Cc2ccc(F)cc2)C(=O)N2CCCC[C@H]2C(=O)N[C@@H](CC(=O)O)C(=O)N2CCC[C@H]2C(=O)N[C@@H](CN)C(=O)N[C@@H](CC(C)C)C(=O)N2C[C@H](O)C[C@H]2C(=O)N[C@@H](Cc2c[nH]c3ccccc23)C(=O)N[C@@H](CCN)C(=O)N[C@@H](Cc2cn(CC(=O)O)c3ccccc23)C(=O)N1C` [Example 14123] ({CH2CO}-[Phe(4-F)][Pip]DP[Dap]L[Hyp]W[Dab][Trp(1-CH2COOH)][NMeNle][NMeNle]LCGE([Ethylenediamine-γGlu-C18 diacid])-OH; thioether N-14), the half-maximal inhibitory concentration (IC50) lay within 0.3 to 9.9 nM.

In the case of `CCCC[C@H]1C(=O)N(C)[C@@H](CCCC)C(=O)N[C@@H](CC(C)C)C(=O)N[C@H](C(=O)NCC(=O)N[C@@H](CC(=O)NCCNC(=O)CC[C@H](NC(=O)CCCCCCCCCCCCCCCCC(=O)O)C(=O)O)C(=O)O)CSCC(=O)N[C@@H](Cc2ccc(F)cc2)C(=O)N2CCCC[C@H]2C(=O)N[C@@H](CC(=O)O)C(=O)N2CCC[C@H]2C(=O)N[C@@H](CN)C(=O)N[C@@H](CC(C)C)C(=O)N2C[C@H](O)C[C@H]2C(=O)N[C@@H](Cc2c[nH]c3ccccc23)C(=O)N[C@@H](CCN)C(=O)N[C@@H](Cc2cn(CC(=O)O)c3ccccc23)C(=O)N1C` [Example 14124] ({CH2CO}-[Phe(4-F)][Pip]DP[Dap]L[Hyp]W[Dab][Trp(1-CH2COOH)][NMeNle][NMeNle]LCGD([Ethylenediamine-γGlu-C18 diacid])-OH; thioether N-14), the IC50 lay within 10 to 99 nM.

As to `CCCC[C@H]1C(=O)N(C)[C@@H](CCCC)C(=O)N[C@@H](CC(C)C)C(=O)N[C@H](C(=O)NCC(=O)N[C@@H](Cc2cn(CCOCCOCCOCCOCCOCCOCCOCCOCCOCCOCCOCCNC(=O)CCCNC(=O)CCCCCCCCCCCCCCCCC(=O)O)nn2)C(=O)O)CSCC(=O)N[C@@H](Cc2ccc(O)cc2)C(=O)N(C)[C@@H](C)C(=O)N[C@@H](CC(N)=O)C(=O)N2CCC[C@H]2C(=O)N[C@@H](CN)C(=O)N[C@@H](CC(C)C)C(=O)N2C[C@H](O)C[C@H]2C(=O)N[C@@H](Cc2c[nH]c3ccccc23)C(=O)N[C@@H](CCN)C(=O)N[C@@H](Cc2cn(CC(=O)O)c3ccccc23)C(=O)N1C` [Example 14125], the IC50 is 0.3 to 9.9 nM.

Regarding `CCCC[C@H]1C(=O)N(C)[C@@H](CCCC)C(=O)N[C@@H](CC(C)C)C(=O)N[C@H](C(=O)NCC(=O)N[C@@H](Cc2cn(CCCNC(=O)CCCCCCCCCCCCCCCCC(=O)O)nn2)C(=O)O)CSCC(=O)N[C@@H](Cc2ccc(O)cc2)C(=O)N(C)[C@@H](C)C(=O)N[C@@H](CC(N)=O)C(=O)N2CCC[C@H]2C(=O)N[C@@H](CN)C(=O)N[C@@H](CC(C)C)C(=O)N2C[C@H](O)C[C@H]2C(=O)N[C@@H](Cc2c[nH]c3ccccc23)C(=O)N[C@@H](CCN)C(=O)N[C@@H](Cc2cn(CC(=O)O)c3ccccc23)C(=O)N1C` [Example 14126], the half-maximal inhibitory concentration (IC50) lay in the range of 0.3 to 9.9 nM.

Consider `C#CC[C@H](NC(=O)CNC(=O)CNC(=O)[C@@H]1CSCC(=O)N[C@@H](Cc2ccc(O)cc2)C(=O)N(C)[C@@H](C)C(=O)N[C@@H](CC(N)=O)C(=O)N2CCC[C@H]2C(=O)N[C@@H](CN)C(=O)N[C@@H](CC(C)C)C(=O)N2C[C@H](O)C[C@H]2C(=O)N[C@@H](Cc2c[nH]c3ccccc23)C(=O)N[C@@H](CCN)C(=O)N[C@@H](Cc2cn(CC(=O)O)c3ccccc23)C(=O)N(C)[C@@H](CCCC)C(=O)N(C)[C@@H](CCCC)C(=O)N[C@@H](CC(C)C)C(=O)N1)C(=O)O` [INT130AA] ({CH2CO}-Y[NMeA]NP[Dap]L[Hyp]W[Dab][Trp(1-CH2COOH)][NMeNle][NMeNle]LCGG[Pra]-OH; thioether N-14), for which the IC50 lay in the range of 10 to 99 nM.

For `C#CC[C@H](NC(=O)CNC(=O)CNC(=O)CNC(=O)[C@@H]1CSCC(=O)N[C@@H](Cc2ccc(O)cc2)C(=O)N(C)[C@@H](C)C(=O)N[C@@H](CC(N)=O)C(=O)N2CCC[C@H]2C(=O)N[C@@H](CN)C(=O)N[C@@H](CC(C)C)C(=O)N2C[C@H](O)C[C@H]2C(=O)N[C@@H](Cc2c[nH]c3ccccc23)C(=O)N[C@@H](CCN)C(=O)N[C@@H](Cc2cn(CC(=O)O)c3ccccc23)C(=O)N(C)[C@@H](CCCC)C(=O)N(C)[C@@H](CCCC)C(=O)N[C@@H](CC(C)C)C(=O)N1)C(=O)O` [INT130AB] ({CH2CO}-Y[NMeA]NP[Dap]L[Hyp]W[Dab][Trp(1-CH2COOH)][NMeNle][NMeNle]LCGGG[Pra]-OH; thioether N-14), the IC50 lay in the range of 10 to 99 nM.

Take `C#CC[C@H](NC(=O)CNC(=O)[C@@H]1CSCC(=O)N[C@@H](Cc2ccc(O)cc2)C(=O)N(C)[C@@H](C)C(=O)N[C@@H](CC(N)=O)C(=O)N2CCC[C@H]2C(=O)N[C@@H](CN)C(=O)N[C@@H](CC(C)C)C(=O)N2C[C@H](O)C[C@H]2C(=O)N[C@@H](Cc2c[nH]c3ccccc23)C(=O)N[C@@H](CCN)C(=O)N[C@@H](Cc2cn(CC(=O)O)c3ccccc23)C(=O)N(C)[C@@H](CCCC)C(=O)N(C)[C@@H](CCCC)C(=O)N[C@@H](CCC(=O)O)C(=O)N1)C(=O)O` [INT130AD] ({CH2CO}-Y[NMeA]NP[Dap]L[Hyp]W[Dab][Trp(1-CH2COOH)][NMeNle][NMeNle]ECG[Pra]-OH; thioether N-14): the concentration for half-maximal inhibition (IC50) lay within 10 to 99 nM.

As to `C#CC[C@H](NC(=O)CNC(=O)[C@@H]1CSCC(=O)N[C@@H](Cc2ccc(O)cc2)C(=O)N(C)[C@@H](C)C(=O)N[C@@H](CC(=O)O)C(=O)N2CCC[C@H]2C(=O)N[C@@H](CN)C(=O)N[C@@H](CC(C)C)C(=O)N2C[C@H](O)C[C@H]2C(=O)N[C@@H](Cc2c[nH]c3ccccc23)C(=O)N[C@@H](CCN)C(=O)N[C@@H](Cc2cn(CC(=O)O)c3ccccc23)C(=O)N(C)[C@@H](CCCC)C(=O)N(C)[C@@H](CCCC)C(=O)N[C@@H](CCC(=O)O)C(=O)N1)C(=O)O` [INT130AE] ({CH2CO}-Y[NMeA]DP[Dap]L[Hyp]W[Dab][Trp(1-CH2COOH)][NMeNle][NMeNle]ECG[Pra]-OH; thioether N-14), the IC50 was 10 to 99 nM.
